Data reported in ChEMBL document CHEMBL1201862, “PubChem BioAssay data set” (2004).
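Cultured in 96-well plates, cells were exposed to test compound for 48 hours across five concentrations. Here, GI50 denotes the concentration required for 50% inhibition of growth.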 Calls of active or inactive are those of the source. Cut-off read from the data, not from the text of the source: active = GI50 up to about 1.1 µM and inactive = higher.

Tests used:
Assay in all cases: DTP human tumour cell line panel, 48 h
NCI-H522 = tested on: NCI-H522
HCT-15 = tested on: HCT-15
SK-MEL-28 = tested on: SK-MEL-28
MOLT-4 = tested on: MOLT-4
HOP-62 = tested on: HOP-62
EKVX = tested on: EKVX
UACC-62 = tested on: UACC-62
OVCAR-8 = tested on: OVCAR-8
K562 = tested on: K562
DLD-1 = tested on: DLD-1
HT-29 = tested on: HT-29
SNB-75 = tested on: SNB-75
SNB-78 = tested on: SNB-78
COLO 205 = tested on: COLO 205
U-251 = tested on: U-251
CAKI-1 = tested on: CAKI-1
HOP-92 = tested on: HOP-92

| SMILES | GI50 (NCI-H522) | GI50 (HCT-15) | GI50 (SK-MEL-28) | GI50 (MOLT-4) | GI50 (HOP-62) | GI50 (EKVX) | GI50 (UACC-62) | GI50 (OVCAR-8) | GI50 (K562) | GI50 (DLD-1) | GI50 (HT-29) | GI50 (SNB-75) | GI50 (SNB-78) | GI50 (COLO 205) | GI50 (U-251) | GI50 (CAKI-1) | GI50 (HOP-92) |
| --- | --- | --- | --- | --- | --- | --- | --- | --- | --- | --- | --- | --- | --- | --- | --- | --- | --- |
| C/C(CN1C(=O)c2ccccc2C1=O)=N\NS(=O)(=O)c1cccc(C(=O)O)c1 | > 100 µM (inactive) | > 100 µM | > 100 µM (inactive) | > 100 µM (inactive) | > 100 µM (inactive) | > 100 µM (inactive) | > 100 µM (inactive) | > 100 µM (inactive) | > 100 µM (inactive) | > 100 µM (inactive) | > 100 µM (inactive) | > 100 µM (inactive) | > 100 µM (inactive) | > 100 µM (inactive) | > 100 µM (inactive) | > 100 µM (inactive) | – |
| CCOC(=O)c1c2ccc(/C=C/c3ccccc3)ccc-2c(C(=O)OCC)c1N | > 100 µM (inactive) | > 100 µM | > 100 µM (inactive) | > 100 µM (inactive) | – | > 100 µM (inactive) | 73.6 µM (inactive) | – | > 100 µM (inactive) | > 100 µM (inactive) | 95.3 µM (inactive) | 36.7 µM (inactive) | – | > 100 µM (inactive) | – | > 100 µM (inactive) | > 100 µM (inactive) |
| COc1nc(NC2OC(COC(C)=O)C(OC(C)=O)C(OC(C)=O)C2OC(C)=O)c(/N=C/C=N/c2c(NC3OC(COC(C)=O)C(OC(C)=O)C(OC(C)=O)C3OC(C)=O)nc(OC)[nH]c2=O)c(=O)[nH]1 (centres undefined) | > 100 µM (inactive) | – | > 100 µM (inactive) | > 100 µM (inactive) | > 100 µM (inactive) | > 100 µM (inactive) | > 100 µM (inactive) | > 100 µM (inactive) | > 100 µM (inactive) | > 100 µM (inactive) | > 100 µM (inactive) | > 100 µM (inactive) | – | > 100 µM (inactive) | > 100 µM (inactive) | > 100 µM (inactive) | > 100 µM (inactive) |
| NCCCNCCCCN(CCCN)/[N+]([O-])=N\O | – | > 100 µM | > 100 µM (inactive) | > 100 µM (inactive) | > 100 µM (inactive) | > 100 µM (inactive) | > 100 µM (inactive) | > 100 µM (inactive) | > 100 µM (inactive) | > 100 µM (inactive) | > 100 µM (inactive) | 89.3 µM (inactive) | > 100 µM (inactive) | > 100 µM (inactive) | – | > 100 µM (inactive) | > 100 µM (inactive) |
| O=C(CC1S/C(=N\c2ccccc2Cl)NC1=O)Nc1ccc(Cl)cc1 (centres undefined) | – | 16.3 µM | > 100 µM (inactive) | – | > 100 µM (inactive) | > 100 µM (inactive) | > 100 µM (inactive) | – | 79.1 µM (inactive) | > 100 µM (inactive) | 64 µM (inactive) | – | > 100 µM (inactive) | 26.4 µM (inactive) | > 100 µM (inactive) | > 100 µM (inactive) | – |
| CC(=O)NNc1nc(C)c(C(=O)NNC(=O)C(=O)Nc2c(Cl)cc([N+](=O)[O-])cc2Cl)s1 | > 10 µM (inactive) | 40.4 µM | 26.4 µM (inactive) | 30.4 µM (inactive) | 56.6 µM (inactive) | 44.2 µM (inactive) | 29.9 µM (inactive) | 34.1 µM (inactive) | 36 µM (inactive) | – | 37.8 µM (inactive) | – | 31.9 µM (inactive) | 36.3 µM (inactive) | > 100 µM (inactive) | – | 19.5 µM (inactive) |
| O=C1C[C@@H]2[C@@H](C=CC23CC3)N1O | > 100 µM (inactive) | – | > 100 µM (inactive) | > 100 µM (inactive) | > 100 µM (inactive) | > 100 µM (inactive) | > 100 µM (inactive) | > 100 µM (inactive) | > 100 µM (inactive) | > 100 µM (inactive) | > 100 µM (inactive) | > 100 µM (inactive) | > 100 µM (inactive) | > 100 µM (inactive) | > 100 µM (inactive) | > 100 µM (inactive) | – |
| O=C(CC(=O)C(=O)Nc1ccccc1)CC(c1ccccc1)c1c(O)c2ccccc2oc1=O (centres undefined) | > 100 µM (inactive) | > 100 µM | > 100 µM (inactive) | > 100 µM (inactive) | – | > 100 µM (inactive) | > 100 µM (inactive) | – | > 100 µM (inactive) | > 100 µM (inactive) | > 100 µM (inactive) | > 100 µM (inactive) | – | > 100 µM (inactive) | – | > 100 µM (inactive) | 23.4 µM (inactive) |
| Cc1cc(C)c(C(=O)O)c(SSc2cc(C)cc(C)c2C(=O)O)c1 | > 100 µM (inactive) | – | > 100 µM (inactive) | > 100 µM (inactive) | > 100 µM (inactive) | > 100 µM (inactive) | > 100 µM (inactive) | > 100 µM (inactive) | > 100 µM (inactive) | > 100 µM (inactive) | > 100 µM (inactive) | – | > 100 µM (inactive) | > 100 µM (inactive) | > 100 µM (inactive) | > 100 µM (inactive) | > 100 µM (inactive) |
| Cc1cc(N(CCC#N)CCC#N)ccc1/C=C\C(=O)Nc1ccccc1 | > 100 µM (inactive) | 0.887 µM | > 100 µM (inactive) | > 100 µM (inactive) | 57 µM (inactive) | > 100 µM (inactive) | 0.931 µM (active) | > 100 µM (inactive) | 1.37 µM (inactive) | 8.17 µM (inactive) | 5.92 µM (inactive) | > 100 µM (inactive) | – | > 100 µM (inactive) | > 100 µM (inactive) | > 100 µM (inactive) | > 100 µM (inactive) |
| C[N+](C)(C)CC1CCC/C1=N/O (centres undefined) | > 100 µM (inactive) | 20 µM | > 100 µM (inactive) | > 100 µM (inactive) | > 100 µM (inactive) | > 100 µM (inactive) | > 100 µM (inactive) | 1.86 µM (inactive) | 23.7 µM (inactive) | > 100 µM (inactive) | 39.3 µM (inactive) | > 100 µM (inactive) | > 100 µM (inactive) | 21.5 µM (inactive) | 48.4 µM (inactive) | – | > 100 µM (inactive) |
| CCOC(=O)C1=C(C)Nc2ccccc2S1 | > 100 µM (inactive) | > 100 µM | > 100 µM (inactive) | 46.1 µM (inactive) | > 100 µM (inactive) | 14.3 µM (inactive) | 3.21 µM (inactive) | – | > 100 µM (inactive) | > 100 µM (inactive) | > 100 µM (inactive) | > 100 µM (inactive) | > 100 µM (inactive) | 77.8 µM (inactive) | > 100 µM (inactive) | > 100 µM (inactive) | 44 µM (inactive) |
| CN(C)CCS/C(=N\c1ccccc1)n1cccc1 | 33.9 µM (inactive) | 98.4 µM | > 100 µM (inactive) | 49.9 µM (inactive) | 25.7 µM (inactive) | – | 82.8 µM (inactive) | > 100 µM (inactive) | 53.6 µM (inactive) | > 100 µM (inactive) | 41.5 µM (inactive) | 27.6 µM (inactive) | 22.2 µM (inactive) | > 100 µM (inactive) | > 100 µM (inactive) | > 100 µM (inactive) | 24 µM (inactive) |
| O=c1[nH]c(=O)n(C2CC(O)C(CO)O2)cc1OS(=O)(=O)C(F)(F)F (centres undefined) | > 100 µM (inactive) | > 100 µM | > 100 µM (inactive) | > 100 µM (inactive) | > 100 µM (inactive) | > 100 µM (inactive) | 38.9 µM (inactive) | > 100 µM (inactive) | > 100 µM (inactive) | > 100 µM (inactive) | > 100 µM (inactive) | > 100 µM (inactive) | – | > 100 µM (inactive) | > 100 µM (inactive) | > 100 µM (inactive) | > 100 µM (inactive) |
| C=C1C(OC(=O)/C=C/c2ccccc2)CC(OC(C)=O)C2(C)C1CC1CC(OC(C)=O)C(C)=C(C(OC(C)=O)C2OC(C)=O)C1(C)C (centres undefined) | > 100 µM (inactive) | 5.41 µM | – | 4.61 µM (inactive) | > 100 µM (inactive) | – | > 100 µM (inactive) | > 100 µM (inactive) | 5.25 µM (inactive) | – | > 100 µM (inactive) | > 100 µM (inactive) | > 100 µM (inactive) | 34 µM (inactive) | > 100 µM (inactive) | > 100 µM (inactive) | > 100 µM (inactive) |
| Clc1cc(Cl)c2ns[s+]c2c1Cl | > 100 µM (inactive) | – | > 100 µM (inactive) | > 100 µM (inactive) | > 100 µM (inactive) | > 100 µM (inactive) | > 100 µM (inactive) | > 100 µM (inactive) | > 100 µM (inactive) | > 100 µM (inactive) | > 100 µM (inactive) | 43.4 µM (inactive) | 0.158 µM (active) | > 100 µM (inactive) | > 100 µM (inactive) | > 100 µM (inactive) | – |
| COc1ccc(/C=C2\N=C(c3ccccc3)N(Nc3nnc(NN4C(=O)/C(=C/c5ccc(OC)cc5)N=C4c4ccccc4)c4ccccc34)C2=O)cc1 | 35.1 µM (inactive) | 40.8 µM | 71.1 µM (inactive) | 29.6 µM (inactive) | 62.7 µM (inactive) | > 100 µM (inactive) | 70.5 µM (inactive) | > 100 µM (inactive) | 38.1 µM (inactive) | 42.3 µM (inactive) | 57.5 µM (inactive) | 68.9 µM (inactive) | > 100 µM (inactive) | > 100 µM (inactive) | 94.8 µM (inactive) | – | > 100 µM (inactive) |
| Cn1cnc(CCc2ccccc2)n1 | > 100 µM (inactive) | > 100 µM | > 100 µM (inactive) | > 100 µM (inactive) | > 100 µM (inactive) | – | > 100 µM (inactive) | > 100 µM (inactive) | > 100 µM (inactive) | > 100 µM (inactive) | > 100 µM (inactive) | > 100 µM (inactive) | > 100 µM (inactive) | > 100 µM (inactive) | > 100 µM (inactive) | > 100 µM (inactive) | > 100 µM (inactive) |
